Assay [1] deals with Protein kinase C theta type (Homo sapiens) (UniProt Q04759). Description: Inhibition of human truncated PKC theta expressed in baculovirus assessed as substrate phosphorylation using fluorescence-labelled peptides as substrate at 8 uM after 90 mins by microfluidic peptide phosphorylation assay.
Assay [2] deals with MAP kinase-activated protein kinase 3 (Homo sapiens) (UniProt Q16644). The experiment in a line: Inhibition of human full length MAPKAPK3 expressed in Escherichia coli cell assessed as substrate phosphorylation using fluorescence-labelled peptides as substrate at 8 uM after 90 mins by microfluidic peptide phosphorylation assay.
Chain of MAP kinase-activated protein kinase 3 (Homo sapiens) (Q16644 whole entry, looked up): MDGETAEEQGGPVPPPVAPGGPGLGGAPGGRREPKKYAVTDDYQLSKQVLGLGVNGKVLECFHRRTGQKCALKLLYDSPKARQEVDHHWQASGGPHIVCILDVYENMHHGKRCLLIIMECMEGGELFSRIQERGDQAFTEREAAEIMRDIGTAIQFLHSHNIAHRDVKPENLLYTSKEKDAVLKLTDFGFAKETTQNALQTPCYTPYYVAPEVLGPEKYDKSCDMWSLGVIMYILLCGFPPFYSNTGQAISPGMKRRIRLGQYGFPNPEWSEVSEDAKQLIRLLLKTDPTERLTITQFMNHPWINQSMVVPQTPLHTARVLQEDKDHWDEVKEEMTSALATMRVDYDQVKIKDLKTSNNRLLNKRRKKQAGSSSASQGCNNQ
The target in assay [3] is Tyrosine-protein kinase Fyn (Homo sapiens) (UniProt P06241). Description: Inhibition of human full length FYN expressed in baculovirus assessed as substrate phosphorylation using fluorescence-labelled peptides as substrate at 70 uM after 90 mins by microfluidic peptide phosphorylation assay.
Chain of Tyrosine-protein kinase Fyn (Homo sapiens) (P06241 2-537 limits assumed): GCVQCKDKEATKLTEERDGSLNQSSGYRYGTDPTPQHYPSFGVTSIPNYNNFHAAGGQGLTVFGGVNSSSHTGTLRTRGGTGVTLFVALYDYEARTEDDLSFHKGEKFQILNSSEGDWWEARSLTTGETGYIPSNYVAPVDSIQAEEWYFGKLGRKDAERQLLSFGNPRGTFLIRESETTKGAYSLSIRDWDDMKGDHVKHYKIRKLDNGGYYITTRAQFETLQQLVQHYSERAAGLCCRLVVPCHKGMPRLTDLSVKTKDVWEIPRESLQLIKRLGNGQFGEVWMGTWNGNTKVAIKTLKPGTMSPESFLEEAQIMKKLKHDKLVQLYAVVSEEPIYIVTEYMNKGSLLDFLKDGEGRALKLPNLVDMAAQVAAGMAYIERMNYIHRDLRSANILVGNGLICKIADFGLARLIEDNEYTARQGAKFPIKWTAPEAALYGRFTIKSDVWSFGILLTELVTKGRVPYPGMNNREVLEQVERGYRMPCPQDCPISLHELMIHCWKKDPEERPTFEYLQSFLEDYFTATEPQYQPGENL
The target of assay [4] is Rho-associated protein kinase 2 (Homo sapiens) (UniProt O75116). The experiment in a line: Inhibition of human ROCK2 catalytic domain expressed in baculovirus assessed as substrate phosphorylation using fluorescence-labelled peptides as substrate at 70 uM after 90 mins by microfluidic peptide phosphorylation assay.
Chain of Rho-associated protein kinase 2 (Homo sapiens) (O75116 whole entry, looked up, the tested form may be a part): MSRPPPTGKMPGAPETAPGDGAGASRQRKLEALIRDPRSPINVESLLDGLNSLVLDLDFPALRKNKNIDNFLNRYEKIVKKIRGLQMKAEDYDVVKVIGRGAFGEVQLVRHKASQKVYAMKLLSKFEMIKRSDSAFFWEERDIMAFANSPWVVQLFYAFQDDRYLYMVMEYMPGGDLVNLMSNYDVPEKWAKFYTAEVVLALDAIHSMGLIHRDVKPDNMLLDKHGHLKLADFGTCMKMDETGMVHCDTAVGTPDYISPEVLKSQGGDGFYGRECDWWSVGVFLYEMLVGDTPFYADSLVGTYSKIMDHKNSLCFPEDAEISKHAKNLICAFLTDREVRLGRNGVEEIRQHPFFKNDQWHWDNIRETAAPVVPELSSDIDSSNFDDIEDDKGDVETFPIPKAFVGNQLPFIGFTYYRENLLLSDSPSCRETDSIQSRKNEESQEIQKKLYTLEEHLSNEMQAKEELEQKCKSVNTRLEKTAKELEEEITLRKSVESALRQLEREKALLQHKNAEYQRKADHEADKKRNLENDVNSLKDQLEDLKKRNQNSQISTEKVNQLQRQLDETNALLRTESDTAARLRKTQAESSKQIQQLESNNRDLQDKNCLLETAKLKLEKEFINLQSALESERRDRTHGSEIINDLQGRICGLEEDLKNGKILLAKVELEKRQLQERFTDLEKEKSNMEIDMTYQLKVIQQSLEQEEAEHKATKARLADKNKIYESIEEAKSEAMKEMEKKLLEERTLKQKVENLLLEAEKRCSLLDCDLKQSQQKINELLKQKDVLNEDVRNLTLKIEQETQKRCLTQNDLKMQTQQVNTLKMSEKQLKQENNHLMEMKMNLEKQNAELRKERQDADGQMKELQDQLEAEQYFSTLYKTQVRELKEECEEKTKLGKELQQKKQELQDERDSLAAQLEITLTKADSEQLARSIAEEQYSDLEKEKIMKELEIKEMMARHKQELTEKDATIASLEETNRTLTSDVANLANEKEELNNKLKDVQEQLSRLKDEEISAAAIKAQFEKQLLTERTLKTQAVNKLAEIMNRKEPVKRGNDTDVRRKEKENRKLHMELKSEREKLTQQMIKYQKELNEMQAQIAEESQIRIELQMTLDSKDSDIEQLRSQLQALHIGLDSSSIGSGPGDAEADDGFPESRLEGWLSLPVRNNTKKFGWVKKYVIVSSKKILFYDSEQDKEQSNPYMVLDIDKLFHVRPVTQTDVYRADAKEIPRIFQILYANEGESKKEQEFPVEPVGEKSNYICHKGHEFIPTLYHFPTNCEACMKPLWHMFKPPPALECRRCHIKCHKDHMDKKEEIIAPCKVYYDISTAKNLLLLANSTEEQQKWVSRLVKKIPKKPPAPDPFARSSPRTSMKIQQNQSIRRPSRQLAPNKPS
Assay [5] has as its target T1, Serine/threonine-protein kinase Chk1 (Homo sapiens) (UniProt O14757).
T1 sequence (whole entry): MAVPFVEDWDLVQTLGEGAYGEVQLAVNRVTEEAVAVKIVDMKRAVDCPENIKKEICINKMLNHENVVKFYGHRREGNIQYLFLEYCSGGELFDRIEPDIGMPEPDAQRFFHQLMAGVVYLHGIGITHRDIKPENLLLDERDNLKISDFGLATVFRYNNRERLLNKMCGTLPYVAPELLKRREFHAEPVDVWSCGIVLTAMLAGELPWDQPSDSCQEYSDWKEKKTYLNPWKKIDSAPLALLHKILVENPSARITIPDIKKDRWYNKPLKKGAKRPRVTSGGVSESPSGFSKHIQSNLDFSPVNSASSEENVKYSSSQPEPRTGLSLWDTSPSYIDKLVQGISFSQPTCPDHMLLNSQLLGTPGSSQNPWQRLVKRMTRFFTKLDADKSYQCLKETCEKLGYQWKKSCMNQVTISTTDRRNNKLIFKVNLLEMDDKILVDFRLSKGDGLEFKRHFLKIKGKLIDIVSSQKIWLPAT
Description: Inhibition of human full length CHK1 expressed in baculovirus assessed as substrate phosphorylation using fluorescence-labelled peptides as substrate at 2 uM after 90 mins by microfluidic peptide phosphorylation assay.

Assay [6] concerns the target T2, Serine/threonine-protein kinase D3 (Homo sapiens) (UniProt O94806).
T2 sequence (whole entry): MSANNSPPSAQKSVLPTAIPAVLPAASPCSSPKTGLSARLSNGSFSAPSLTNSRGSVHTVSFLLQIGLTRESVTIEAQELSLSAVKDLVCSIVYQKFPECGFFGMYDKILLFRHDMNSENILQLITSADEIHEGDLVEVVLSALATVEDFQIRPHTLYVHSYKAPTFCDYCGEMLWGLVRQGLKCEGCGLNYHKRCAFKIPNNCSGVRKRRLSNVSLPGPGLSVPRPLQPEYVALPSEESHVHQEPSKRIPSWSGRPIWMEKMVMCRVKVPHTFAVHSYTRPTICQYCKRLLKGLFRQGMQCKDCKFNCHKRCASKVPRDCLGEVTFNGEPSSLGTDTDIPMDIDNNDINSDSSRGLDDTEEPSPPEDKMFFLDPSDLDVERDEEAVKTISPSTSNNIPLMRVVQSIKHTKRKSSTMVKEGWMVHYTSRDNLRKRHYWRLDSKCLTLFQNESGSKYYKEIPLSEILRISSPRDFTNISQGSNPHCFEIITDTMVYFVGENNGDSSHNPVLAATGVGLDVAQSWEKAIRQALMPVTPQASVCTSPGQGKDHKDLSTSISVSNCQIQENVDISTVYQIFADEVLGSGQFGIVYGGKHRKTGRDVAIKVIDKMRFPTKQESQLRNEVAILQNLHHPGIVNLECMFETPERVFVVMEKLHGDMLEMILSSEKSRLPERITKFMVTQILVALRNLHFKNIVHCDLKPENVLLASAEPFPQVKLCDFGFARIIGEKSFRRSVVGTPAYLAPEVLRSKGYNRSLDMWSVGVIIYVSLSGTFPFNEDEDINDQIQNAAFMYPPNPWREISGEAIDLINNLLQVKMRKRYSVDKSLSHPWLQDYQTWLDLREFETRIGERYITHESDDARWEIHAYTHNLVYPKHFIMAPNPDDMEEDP
Description: Inhibition of human full length PKD3 expressed in baculovirus assessed as substrate phosphorylation using fluorescence-labelled peptides as substrate at 2 uM after 90 mins by microfluidic peptide phosphorylation assay.

The target of assay [7] is T3, Serine/threonine-protein kinase Nek2 (Homo sapiens) (UniProt P51955).
T3 sequence (whole entry): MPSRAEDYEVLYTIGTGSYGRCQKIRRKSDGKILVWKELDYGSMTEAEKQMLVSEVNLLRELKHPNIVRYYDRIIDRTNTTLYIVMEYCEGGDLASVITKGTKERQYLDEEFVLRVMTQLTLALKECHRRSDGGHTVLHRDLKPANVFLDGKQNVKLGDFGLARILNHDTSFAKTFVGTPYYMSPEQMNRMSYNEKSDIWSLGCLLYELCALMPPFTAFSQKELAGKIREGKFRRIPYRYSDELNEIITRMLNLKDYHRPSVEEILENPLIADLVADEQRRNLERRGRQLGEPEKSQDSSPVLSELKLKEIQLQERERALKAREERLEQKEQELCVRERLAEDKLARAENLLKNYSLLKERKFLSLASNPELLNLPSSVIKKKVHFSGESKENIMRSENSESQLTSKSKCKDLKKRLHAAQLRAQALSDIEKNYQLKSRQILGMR
Description: Inhibition of human full length NEK2 expressed in baculovirus assessed as substrate phosphorylation using fluorescence-labelled peptides as substrate at […] after 90 mins by microfluidic peptide phosphorylation assay.

The test system of assay [8] is Fibroblast growth factor receptor 2 (Homo sapiens), P21802 [N549H]. The experiment in a line: Inhibition of human FGFR2 N549H mutant catalytic domain expressed in baculovirus assessed as substrate phosphorylation using fluorescence-labelled peptides as substrate at […] after 90 mins by microfluidic peptide phosphorylation assay.
Chain of Fibroblast growth factor receptor 2 (Homo sapiens), P21802 [N549H] (P21802 whole entry N549H, the tested form may be a part): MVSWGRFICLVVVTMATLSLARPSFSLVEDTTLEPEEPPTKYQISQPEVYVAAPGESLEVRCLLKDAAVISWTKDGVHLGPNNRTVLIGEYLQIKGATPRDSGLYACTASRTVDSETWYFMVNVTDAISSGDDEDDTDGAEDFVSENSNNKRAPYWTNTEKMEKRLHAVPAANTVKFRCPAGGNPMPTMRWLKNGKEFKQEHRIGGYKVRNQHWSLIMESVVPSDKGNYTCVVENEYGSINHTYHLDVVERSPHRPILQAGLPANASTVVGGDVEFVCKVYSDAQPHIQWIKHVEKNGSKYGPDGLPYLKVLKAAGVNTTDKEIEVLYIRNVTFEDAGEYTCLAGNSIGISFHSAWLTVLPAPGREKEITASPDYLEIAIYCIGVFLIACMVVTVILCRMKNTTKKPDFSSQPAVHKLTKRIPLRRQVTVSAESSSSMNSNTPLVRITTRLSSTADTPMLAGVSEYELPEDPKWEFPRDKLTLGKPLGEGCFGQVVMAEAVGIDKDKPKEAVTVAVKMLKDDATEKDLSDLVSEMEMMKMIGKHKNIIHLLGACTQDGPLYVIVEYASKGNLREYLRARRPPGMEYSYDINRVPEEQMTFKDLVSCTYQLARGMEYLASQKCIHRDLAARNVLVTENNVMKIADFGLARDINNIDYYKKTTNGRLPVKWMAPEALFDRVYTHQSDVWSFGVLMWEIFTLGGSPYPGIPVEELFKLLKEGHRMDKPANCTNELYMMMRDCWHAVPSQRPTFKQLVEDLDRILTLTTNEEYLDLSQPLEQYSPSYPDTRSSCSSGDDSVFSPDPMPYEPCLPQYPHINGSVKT

The structures appear in SMILES notation.

Chain of Protein kinase C theta type (Homo sapiens) (Q04759 whole entry, looked up, the tested form may be a part): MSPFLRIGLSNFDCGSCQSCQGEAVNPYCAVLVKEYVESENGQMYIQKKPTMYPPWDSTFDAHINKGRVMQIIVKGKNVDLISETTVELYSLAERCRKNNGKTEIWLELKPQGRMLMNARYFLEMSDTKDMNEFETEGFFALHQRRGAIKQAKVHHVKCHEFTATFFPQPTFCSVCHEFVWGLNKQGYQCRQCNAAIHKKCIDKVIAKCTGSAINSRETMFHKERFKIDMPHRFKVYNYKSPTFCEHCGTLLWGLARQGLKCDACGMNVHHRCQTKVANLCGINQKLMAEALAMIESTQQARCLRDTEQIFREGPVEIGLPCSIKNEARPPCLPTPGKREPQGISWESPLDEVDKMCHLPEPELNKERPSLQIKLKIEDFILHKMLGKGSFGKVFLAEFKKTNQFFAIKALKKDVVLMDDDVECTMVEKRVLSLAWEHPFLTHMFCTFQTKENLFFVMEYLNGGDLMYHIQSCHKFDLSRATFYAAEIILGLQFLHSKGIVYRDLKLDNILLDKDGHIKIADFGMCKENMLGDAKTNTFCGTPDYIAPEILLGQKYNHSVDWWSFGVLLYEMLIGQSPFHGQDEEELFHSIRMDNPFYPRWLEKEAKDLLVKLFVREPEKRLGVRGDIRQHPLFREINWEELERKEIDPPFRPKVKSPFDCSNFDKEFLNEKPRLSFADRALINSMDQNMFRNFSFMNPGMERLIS

`NCC1CCN(c2ncnc3[nH]ccc23)CC1`: the inhibition in assay [1] came out at 67.5%; in assay [2], 81.5%.

On to `CNCc1ccc(-c2ncnc3[nH]cnc23)cc1`, for which the inhibition in assay [3] stood at 31.5%; in assay [4], 88.5%.

For `NC1CCN(c2ncnc3[nH]ccc23)CC1`, the inhibition was determined as 1.5% in assay [5] and 0% in assay [6].

`COC(=O)c1cnc(Nc2cnc(C#N)cn2)cc1NCC1CCNCC1`: the values for the inhibition in assay [7] and in assay [8] were 0.5% and 6.5%, respectively.

In general, inhibition refers to how much of the control response was suppressed.

Values taken from ChEMBL document CHEMBL3132769, “Fragment growing to retain or alter the selectivity of anchored kinase hinge-binding fragments” (Medchemcomm, 2014).
